Laboratory results as given in patent US6774145B1, “Material separated from Ecklonia cava, method for extracting and purifying the same, and use thereof as antioxidants” (Ventree Co., Ltd, priority 2000, dated 2004).

Legend:
[1] = Thermal stability: antioxidative activity after heating for 1 hour; type: physicochemical
Method: (§1) The antioxidative activity of the novel compound obtained through the extraction and purification process is evaluated by measuring its radical scavenging activity against 1,1-diphenyl-2-picrylhydrazyl (DPPH), which has free radicals attached thereto, according to the Blois method. A thermal stability of the compound of interest can be evaluated by measuring its antioxidative activity at plural temperature points.
(§2) Dicaval A and Dicaval B obtained in Example 3 were measured for antioxidative activity according to the Blois method. For this, an examination was made of the radical scavenging activity of the two compounds against 1,1-diphenyl-2-picrylhydrazyl (DPPH) to which free radicals were attached. First, 20 mg of DPPH was dissolved in 150 ml of ethanol to prepare a DPPH solution. To 600 μl of the DPPH solution was added with 250 μl of dimethylsulfoxide (DMSO), diluted with an appropriate amount of ethanol and shaken for 10 seconds, after which this control was adjusted, in absorbance at 517 nm, from 0.94 to 0.97. To 1 ml of the DPPH solution which was adjusted from 0.94 to 0.97 likewise, each of the samples (μg to mg) was added and then, reacted for 10 min, followed by measuring the absorbance of the solution. The antioxidative activity of each of the samples was determined by the DPPH radical scavenging activity which was represented by a reduced absorbance compared with that of the control.
50 μg of each of Dicaval A and Dicaval B obtained in Example 3 was heated at 40° C., 60° C., 80° C., and 100° C. for 1 hour to measure antioxidative activity.

[2] = DPPH radical scavenging activity (Blois method); type: biochemical; details: reacted 10 min, absorbance at 517 nm
Method: as §1, §2
The antioxidative activity was compared between the conventional antioxidants and the compounds of the invention and the results are given in Table 1, below.

[3] = 50 μg heated at 40° C. for 1 hour
[4] = 50 μg heated at 60° C. for 1 hour
[5] = 50 μg heated at 80° C. for 1 hour
[6] = 50 μg heated at 100° C. for 1 hour

Thermal stability (Notes) [1, 3] | Thermal stability (Notes) [1, 4] | Thermal stability (Notes) [1, 5] | Thermal stability (Notes) [1, 6] | Structure (SMILES) | Antioxidativity (Absorb. change) [1, 3] | Antioxidativity (Absorb. change) [1, 4] | Antioxidativity (Absorb. change) [1, 5] | Antioxidativity (Absorb. change) [1, 6] | antioxidative activity (DPPH radical scavenging activity) ([2]; sample amount 10 μg) | antioxidative activity (DPPH radical scavenging activity) ([2]; sample amount 20 μg) | antioxidative activity (DPPH radical scavenging activity) ([2]; sample amount 100 μg)
Stable | Stable | Stable | Stable | Oc1cc(O)c(Oc2c(O)cc(Oc3cc4oc5c(O)c(Oc6cc(O)c(Oc7c(O)cc(O)cc7O)c(O)c6)c(O)cc5c4cc3O)cc2O)c(O)c1 [Dicaval A] | 0.87 | 0.89 | 0.88 | 0.90 | 100% | 100% | 100%
Stable | Stable | Stable | Stable | Oc1cc(O)c(Oc2c(O)cc(Oc3c(O)cc4c(oc5c(O)c(Oc6cc(O)c(Oc7c(O)cc(O)cc7O)c(O)c6)c(O)cc54)c3O)cc2O)c(O)c1 [Dicaval B] | 0.88 | 0.88 | 0.87 | 0.89 | 100% | 100% | 100%
 |  |  |  | O=C1O[C@H]([C@@H](O)CO)C(O)=C1O [Ascorbic acid, reference compound] |  |  |  |  | 100% | 100% | 100%
